Test system: D1 cells
Experiment: Maturation of D1 dendritic cells (surface MHC class II, flow cytometry)
Assay type: cell-based, BALB/c mouse
Conditions: overnight incubation, 0.45 nmoles/mL; […]

ALNNRFQIKGVELKSKTYQRTRALV [[Th]-Lys-[CTL]]
maturation of D1 cells (percentage expressing high levels of surface MHC class II): ≤ 26%

From patent US7833532B2, “Immunogenic lipopeptides comprising T-helper and cytotoxic T lymphocyte (CTL) epitopes” (The Council of The Queensland Institute of Medical Research, priority 2002, dated 2010)
